# Assay results published in paper PMC9403976, “Elucidating the path to Plasmodium prolyl-tRNA synthetase inhibitors that overcome halofuginone resistance” (Nature Communications, 2022).
# Where “and” joins values, the source holds several entries; their conditions need not be identical. Identical values can stand only once. Like-named read-outs stand apart in the source and are kept apart here.
# How the values were obtained:
# [1] = target: HsProRS (Homo sapiens, UniProt P07814); assay: TR-FRET ligand displacement assay with tracer MAT379 (CoraFluor-1-Halo and anti-His6 antibody formats); type: binding; design: made in house; host or cells: E. coli SoluBL-21; details: for TR-FRET dose-response, normalized signal (SI Fig 11): individual replicates
# [2] = target: T1, PfcProRS (Plasmodium falciparum, UniProt Q8I5R7); type: binding; details: single replicates
# T1 construct: made in house; host or cells: E. coli SoluBL-21
# T1 sequence (Q8I5R7 249-746): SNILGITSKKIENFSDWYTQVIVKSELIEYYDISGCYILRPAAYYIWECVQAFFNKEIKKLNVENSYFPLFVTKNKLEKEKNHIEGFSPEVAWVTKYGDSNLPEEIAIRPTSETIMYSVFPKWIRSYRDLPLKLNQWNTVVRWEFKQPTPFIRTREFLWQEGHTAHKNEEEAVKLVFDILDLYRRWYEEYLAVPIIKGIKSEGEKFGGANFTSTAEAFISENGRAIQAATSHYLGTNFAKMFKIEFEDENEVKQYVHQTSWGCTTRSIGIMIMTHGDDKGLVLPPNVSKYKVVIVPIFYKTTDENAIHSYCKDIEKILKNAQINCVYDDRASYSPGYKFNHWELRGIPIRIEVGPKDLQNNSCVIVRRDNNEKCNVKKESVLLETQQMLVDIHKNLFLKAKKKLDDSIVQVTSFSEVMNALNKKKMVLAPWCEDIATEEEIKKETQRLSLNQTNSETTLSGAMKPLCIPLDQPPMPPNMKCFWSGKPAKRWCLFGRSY
# Chain of HsProRS (P07814 996-1512): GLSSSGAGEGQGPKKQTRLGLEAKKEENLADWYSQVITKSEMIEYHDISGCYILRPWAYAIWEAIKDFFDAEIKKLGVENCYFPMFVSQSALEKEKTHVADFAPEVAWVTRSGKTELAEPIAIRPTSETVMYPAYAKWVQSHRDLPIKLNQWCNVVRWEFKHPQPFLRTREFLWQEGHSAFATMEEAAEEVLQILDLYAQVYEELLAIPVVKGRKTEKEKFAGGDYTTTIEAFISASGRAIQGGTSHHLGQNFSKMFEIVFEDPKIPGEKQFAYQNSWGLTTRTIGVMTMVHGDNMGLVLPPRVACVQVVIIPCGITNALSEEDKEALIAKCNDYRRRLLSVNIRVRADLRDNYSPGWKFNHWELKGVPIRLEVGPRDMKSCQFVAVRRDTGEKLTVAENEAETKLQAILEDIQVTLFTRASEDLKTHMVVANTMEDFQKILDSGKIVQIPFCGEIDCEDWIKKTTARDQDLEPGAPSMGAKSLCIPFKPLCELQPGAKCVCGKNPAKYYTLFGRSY
smiles,measurement,setting,value
CC(C)N(C(=O)Nc1nccnc1C(=O)NC1Cc2ccccc2C1)C(C)C [compound 5],Kd,"[1]; HsProRS - best Kd, SI Fig 16a, values on -log scale",1020 nM
same,"normalized TR-FRET ligand displacement signal, dose-response replicates (SI Fig 6)",[1]; Log[inhibitor] (M) -5.000,8.71E-01 and 7.50E-01 and 6.79E-01
same,"TR-FRET dose-response, normalized signal (SI Fig 11)",[1]; Log[inhibitor] (M) -5.000,6.19E-01 and 6.48E-01 and 6.40E-01
same,"normalized TR-FRET ligand displacement signal, dose-response replicates (SI Fig 6)",[1]; Log[inhibitor] (M) -5.301,9.58E-01 and 7.89E-01 and 8.27E-01
same,"TR-FRET dose-response, normalized signal (SI Fig 11)",[1]; Log[inhibitor] (M) -5.301,7.58E-01 and 7.59E-01 and 7.76E-01
same,"normalized TR-FRET ligand displacement signal, dose-response replicates (SI Fig 6)",[1]; Log[inhibitor] (M) -5.601,8.37E-01 and 1.05E+00 and 1.03E+00
same,"TR-FRET dose-response, normalized signal (SI Fig 11)",[1]; Log[inhibitor] (M) -5.601,8.37E-01 and 8.60E-01 and 8.59E-01
same,"normalized TR-FRET ligand displacement signal, dose-response replicates (SI Fig 6)",[1]; Log[inhibitor] (M) -5.904,1.09E+00 and 1.03E+00 and 9.64E-01
same,"TR-FRET dose-response, normalized signal (SI Fig 11)",[1]; Log[inhibitor] (M) -5.904,9.61E-01 and 8.97E-01 and 9.02E-01
same,"normalized TR-FRET ligand displacement signal, dose-response replicates (SI Fig 6)",[1]; Log[inhibitor] (M) -6.208,9.53E-01 and 8.96E-01 and 9.38E-01
same,"TR-FRET dose-response, normalized signal (SI Fig 11)",[1]; Log[inhibitor] (M) -6.208,9.36E-01 and 9.49E-01 and 9.17E-01
same,"normalized TR-FRET ligand displacement signal, dose-response replicates (SI Fig 6)",[1]; Log[inhibitor] (M) -6.509,9.42E-01 and 9.99E-01 and 1.01E+00
same,"TR-FRET dose-response, normalized signal (SI Fig 11)",[1]; Log[inhibitor] (M) -6.509,8.96E-01 and 8.83E-01 and 9.32E-01
same,"normalized TR-FRET ligand displacement signal, dose-response replicates (SI Fig 6)",[1]; Log[inhibitor] (M) -6.796,1.20E+00 (2×) and 1.11E+00
same,"TR-FRET dose-response, normalized signal (SI Fig 11)",[1]; Log[inhibitor] (M) -6.796,9.19E-01 and 9.16E-01 and 9.35E-01
same,"normalized TR-FRET ligand displacement signal, dose-response replicates (SI Fig 6)",[1]; Log[inhibitor] (M) -7.108,9.92E-01 and 1.02E+00 and 1.18E+00
same,"TR-FRET dose-response, normalized signal (SI Fig 11)",[1]; Log[inhibitor] (M) -7.108,9.11E-01 and 9.16E-01 and 8.81E-01
same,"normalized TR-FRET ligand displacement signal, dose-response replicates (SI Fig 6)",[1]; Log[inhibitor] (M) -7.409,8.86E-01 and 9.18E-01 and 1.10E+00
same,"TR-FRET dose-response, normalized signal (SI Fig 11)",[1]; Log[inhibitor] (M) -7.409,9.21E-01 and 9.28E-01 and 9.54E-01
same,"normalized TR-FRET ligand displacement signal, dose-response replicates (SI Fig 6)",[1]; Log[inhibitor] (M) -7.710,1.00E+00 and 9.56E-01 and 9.99E-01
same,"TR-FRET dose-response, normalized signal (SI Fig 11)",[1]; Log[inhibitor] (M) -7.710,9.54E-01 and 9.03E-01 and 9.47E-01
same,"normalized TR-FRET ligand displacement signal, dose-response replicates (SI Fig 6)",[1]; Log[inhibitor] (M) -8.000,1.08E+00 and 9.18E-01 and 9.67E-01
same,"TR-FRET dose-response, normalized signal (SI Fig 11)",[1]; Log[inhibitor] (M) -8.000,9.82E-01 and 9.20E-01 and 9.02E-01
same,"normalized TR-FRET ligand displacement signal, dose-response replicates (SI Fig 6)",[1]; Log[inhibitor] (M) -8.301,9.61E-01 and 8.84E-01 and 1.00E+00
same,"TR-FRET dose-response, normalized signal (SI Fig 11)",[1]; Log[inhibitor] (M) -8.301,9.50E-01 and 9.79E-01 and 9.60E-01
same,"normalized TR-FRET ligand displacement signal, dose-response replicates (SI Fig 6)",[1]; Log[inhibitor] (M) -8.602,9.71E-01 and 1.01E+00 and 8.97E-01
same,"TR-FRET dose-response, normalized signal (SI Fig 11)",[1]; Log[inhibitor] (M) -8.602,9.46E-01 and 9.17E-01 and 9.64E-01
same,"normalized TR-FRET ligand displacement signal, dose-response replicates (SI Fig 6)",[1]; Log[inhibitor] (M) -9.000,9.83E-01 and 9.95E-01 and 9.23E-01
same,"TR-FRET dose-response, normalized signal (SI Fig 11)",[1]; Log[inhibitor] (M) -9.000,9.65E-01 and 9.90E-01 and 9.18E-01
same,"normalized TR-FRET ligand displacement signal, dose-response replicates (SI Fig 6)",[1]; Log[inhibitor] (M) -9.301,9.67E-01 and 9.33E-01 and 1.01E+00
same,"TR-FRET dose-response, normalized signal (SI Fig 11)",[1]; Log[inhibitor] (M) -9.301,9.51E-01 and 9.69E-01 and 8.77E-01
same,"dose-response signal (normalized), SI Fig 8",[2]; Log[inhibitor] (M) -5.000,1.47E-01 and 1.35E-01 and 1.83E-01
same,"dose-response signal (normalized), SI Fig 8",[2]; Log[inhibitor] (M) -5.301,3.88E-01 and 4.48E-01 and 4.36E-01
same,"dose-response signal (normalized), SI Fig 8",[2]; Log[inhibitor] (M) -5.601,7.44E-01 and 8.07E-01 and 7.69E-01
same,"dose-response signal (normalized), SI Fig 8",[2]; Log[inhibitor] (M) -5.904,8.45E-01 and 8.57E-01 and 9.58E-01
same,"dose-response signal (normalized), SI Fig 8",[2]; Log[inhibitor] (M) -6.208,8.74E-01 and 8.91E-01 and 9.30E-01
same,"dose-response signal (normalized), SI Fig 8",[2]; Log[inhibitor] (M) -6.509,9.93E-01 and 1.13E+00 and 1.03E+00
same,"dose-response signal (normalized), SI Fig 8",[2]; Log[inhibitor] (M) -6.796,1.01E+00 and 9.89E-01 and 1.13E+00
same,"dose-response signal (normalized), SI Fig 8",[2]; Log[inhibitor] (M) -7.108,9.82E-01 and 9.95E-01 and 1.21E+00
same,"dose-response signal (normalized), SI Fig 8",[2]; Log[inhibitor] (M) -7.409,1.20E+00 and 1.06E+00 and 1.08E+00
same,"dose-response signal (normalized), SI Fig 8",[2]; Log[inhibitor] (M) -7.710,1.11E+00 (2×) and 1.12E+00
same,"dose-response signal (normalized), SI Fig 8",[2]; Log[inhibitor] (M) -8.000,1.01E+00 and 1.06E+00 and 1.07E+00
same,"dose-response signal (normalized), SI Fig 8",[2]; Log[inhibitor] (M) -8.301,9.64E-01 and 1.10E+00 and 1.14E+00
same,"dose-response signal (normalized), SI Fig 8",[2]; Log[inhibitor] (M) -8.602,8.54E-01 and 1.04E+00 and 1.07E+00
same,"dose-response signal (normalized), SI Fig 8",[2]; Log[inhibitor] (M) -9.000,9.25E-01 and 9.26E-01 and 1.03E+00
same,"dose-response signal (normalized), SI Fig 8",[2]; Log[inhibitor] (M) -9.301,8.80E-01 and 9.99E-01 and 1.04E+00
